# Assay results as given in patent US9062041B2 (Bayer Intellectual Property GmbH, priority 2011, dated 2015).
# Like-named read-outs stand apart in the source and are kept apart here.
# Legend:
# [1] = Pharmacokinetic parameters after intravenous administration; assay type: in vivo, rat; details: for half-life: plasma
# Description: 5. Determination of the Pharmacokinetic Parameters after Intravenous Administration
# 5.1. Intravenous Administration:
# For this, the substances were administered in dissolved form, compatible solubilizers such as PEG400 and/or ethanol being used in tolerable quantity. The substances were administered at a dosage of 0.1-1 mg/kg. The administration was effected in the female rat as a bolus injection. Here, at various times after bolus injection ca. 100-150 μl blood samples were withdrawn from the jugular vein via a catheter. The blood samples were treated with lithium-heparin as anticoagulant and stored refrigerated until further work-up. After centrifugation of the samples for 15 mins at 3000 rpm, an aliquot of 100 μl was withdrawn from the supernatant (plasma) and precipitated by addition of 400 μl of cold acetonitrile or methanol (absolute). The precipitated samples were frozen overnight at −20° C., then centrifuged once again for 15 mins at 3000 rpm, before 150 μl of the clear supernatant was withdrawn for the concentration determination. The analysis was performed with an Agilent 1200 HPLC system with attached LCMS/MS detection.
# 5.2 Calculation of the PK Parameters
# The calculation was performed by means of the PK calculation software WinNonLin®, where t1/2 means half-life within a specified interval (here: terminal t1/2, in hrs).
# cumulus-oocyte complexes = assay: Cumulus expansion test in vitro; assay type: cell-based, mice (strain: B6D2F1); details: for inhibition at 1 µM / inhibition at 0.5 µM: Mus musculus, 0.3 μM PGE2 for stimulation; for inhibition at 1 µM: read-out: % reduction at 1 μM (reduction in the cumulus expansion); for inhibition at 0.5 µM: read-out: % reduction at 0.5 μm (reduction in the cumulus expansion)
# Description: 4.2. Cumulus Expansions Test In Vitro In immature female mice (strain: B6D2F1 from Charles River), at an age of 14-18 days, the folliculogenesis was induced by a single administration (intraperitoneal) of 10 IU of PMSG (pregnant mare serum gonadotropin; Sigma G-4877, Lot 68H0909). 47-50 hours after the injection, the ovaries were removed and the cumulus-oocyte complexes removed. At this stage, the cumulus complex is not yet expanded. The cumulus-oocyte complexes were now incubated for 20-24 hours with prostaglandin E2 (PGE) (0.3 μM), vehicle control (ethanol) or test substances. Medium: alpha-MEM medium with 0.1 mM IBMX, pyruvate (0.23 mM), glutamine (2 mM), pen/strep 100 IU/ml pen. and 100 μg/ml strep.), HSA (8 mg/ml) and foetal bovine serum (FBS, 10%). The cumulus expansion was then established through the subdivision into four stages (after Vanderhyden et al. Dev Biol. 1990 August; 140(2):307-317).
# human PGD receptor = molecular target: T1, human PGD receptor (Homo sapiens, UniProt Q13258); assay: cAMP antagonism test on the human prostaglandin D receptor (HTRF cAMP detection); assay type: cell-based; details: selectivity towards hDP, IC50 measured by cAMP antagonism test
# T1 sequence (Q13258 1-359): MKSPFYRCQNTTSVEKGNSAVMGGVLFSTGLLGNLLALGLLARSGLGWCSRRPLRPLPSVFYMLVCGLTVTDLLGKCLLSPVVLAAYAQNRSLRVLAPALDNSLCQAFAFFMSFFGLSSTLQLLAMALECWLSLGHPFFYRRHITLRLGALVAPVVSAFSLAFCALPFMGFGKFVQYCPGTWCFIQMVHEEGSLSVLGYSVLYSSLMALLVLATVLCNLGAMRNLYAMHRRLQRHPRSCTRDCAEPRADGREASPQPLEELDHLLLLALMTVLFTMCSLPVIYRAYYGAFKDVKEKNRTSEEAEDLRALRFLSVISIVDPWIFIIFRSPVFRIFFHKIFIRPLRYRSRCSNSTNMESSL
# Method in brief: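 HTRF competition read-out (665/620 nm ratio ×10000), where higher FRET means less cAMP, i.e. antagonism. Compounds (0.8 nM–16.5 μM) were preincubated 20 min at RT with cells and cAMP-d2, PGD2 (3× solution, 6 nM) in IBMX-containing PBS added for 30 min at RT, then cells lysed 20 min.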
# [2] = molecular target: EP2 subtype of the human PGE2 receptor (Homo sapiens, UniProt P43116); assay: cAMP antagonism test on the human EP2 receptor (HTRF cAMP detection); assay type: cell-based; details: hEP2 receptor
# Chain of EP2 subtype of the human PGE2 receptor (P43116 whole entry): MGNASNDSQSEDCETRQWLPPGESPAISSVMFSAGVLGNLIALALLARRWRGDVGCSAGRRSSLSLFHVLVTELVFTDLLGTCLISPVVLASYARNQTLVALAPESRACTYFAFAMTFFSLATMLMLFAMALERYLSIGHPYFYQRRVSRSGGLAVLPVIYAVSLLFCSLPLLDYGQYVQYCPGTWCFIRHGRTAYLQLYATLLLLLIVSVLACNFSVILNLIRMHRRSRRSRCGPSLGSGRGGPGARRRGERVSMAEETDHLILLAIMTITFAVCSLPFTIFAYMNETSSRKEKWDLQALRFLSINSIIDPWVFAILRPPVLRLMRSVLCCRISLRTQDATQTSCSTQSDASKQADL
# Method in brief: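 Read-out is a competitive HTRF for cAMP: lysate cAMP displaces cAMP-d2 from Eu cryptate-labelled antibody, and antagonism raises the 665/620 nm ratio. Compound (0.8 nM–16.5 μM) added to EP2 cells 20 min at RT before 60 min PGE2 challenge (3× stock 1.5 nM) with IBMX, followed by 20 min lysis.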
# [3] = after intravenous administration in the female rat, read-out: Terminal half-life t1/2 (converted)
SMILES,Terminal half-life t1/2 ([1]; after intravenous administration in the female rat) [h],"half-life ([1]; intravenous administration, female rat, read-out: terminal half-life t1/2 (converted)) [h]","suppression of the cumulus expansion (cumulus-oocyte complexes; 0.5 μM, PGE2 0.3 μM)",inhibition at 1 µM (cumulus-oocyte complexes) [%],inhibition at 0.5 µM (cumulus-oocyte complexes) [%],Selectivity hEP2/hDP (human PGD receptor),IC50 ([2]; read-out: Antagonism hEP2 IC50) [nM],IC50 ([2]; read-out: IC50) [nM],"half-life [1, 3] [h]"
"COCCNC(=O)c1ccc2nn(CC3CCN(C(=O)c4ccc(Oc5ccc(C(F)(F)F)cc5)cc4)CC3)cc2c1C [Example 17, N-(2-methoxyethyl)-4-methyl-2-[(1-{4-[4-(trifluoromethyl)-phenoxy]benzoyl}-piperidin-4-yl)-methyl]-2H-indazol-5-carboxamide]",2.5,2.5,ca. 70%,76,71,xxx (xxx > 100),3.44,3.4,
"COCCNC(=O)c1ccc2nn(CC3CCN(C(=O)c4ccc(-c5ccc(F)cc5)cc4F)CC3)cc2c1C [Example 42, 2-({1-[(3,4′-difluoro-biphenyl-4-yl)-carbonyl]piperidin-4-yl}methyl)-N-(2-methoxyethyl)-4-methyl-2H-indazol-5-carboxamide]",,,,79,48,xxx (xxx > 100),4.75,,3.2
"COCCNC(=O)c1ccc2nn(CC3CN(C(=O)c4ccc(Cl)cc4)C3)cc2c1C [Example 117, 2-{[1-(4-chlorobenzoyl)azetidin-3-yl]methyl}-N-(2-methoxyethyl)-4-methyl-2H-indazol-5-carboxamide]",,,,54,30,xxx (xxx > 100),17.8,,2
"Cc1c(C(=O)NCC(F)(F)F)ccc2nn(CC3CCN(C(=O)c4ccc(Oc5ccc(F)cc5)cc4)CC3)cc12 [Example 283, 2-({1-[4-(4-fluorophenoxy)benzoyl]piperidin-4-yl}methyl)-4-methyl-N-(2,2,2-trifluoroethyl)-2H-indazol-5-carboxamide]",,,,26,25,xxx (xxx > 100),65.5,,5.8
